According to patent US8835476B2, “Synthesis of novel antimicrobials” (priority 2005, dated 2014):

What follows are molecules tested against T1, recombinant E. coli LpxA (Escherichia coli, UniProt P0A722) (assay: LpxA assay: acyl-UDP-GlcNAc formation from UDP-[3H]GlcNAc, TLC). Conditions: 5 mM compound; FIG. 8.
T1 construct: 6xHis (C); made in house; host or cells: E. coli BL21 (pET23b)
Type: biochemical
From the text: The lpxA gene was amplified from an E. coli genomic library and inserted into a pET23b vector using standard recombinant DNA methodology. The 5′ oligonucleotide for amplification of the LpxA open reading frame was 5′-[…]-3′ (SEQ ID NO. 1) and contains a BamHI restriction enzyme site upstream of the LpxA ATG start codon and the 3′ oligonucleotide was 5′-[…]-3′ (SEQ ID NO. 2) and contains a XhoI restriction enzyme site downstream of the final codon of the LpxA open reading frame. Primers were custom synthesized. The primers were designed such that digestion of the amplification product would result in addition of a C-terminal 6×-His tag in frame with the LpxA open reading frame. Specifically, E. coli genomic DNA was isolated and an amplification reaction was carried out as follows: 33 μl water, 5 μl 10× reaction buffer, 1.5 μl of 50 mM magnesium sulfate, 3 μl of 10 mM dNTPs, 3 μl of a 50 μM solution of the 5′ LpxA primer, 3 μl of a 50 μM solution of the 3′ LpxA primer, 0.5 μl of E. coli genomic DNA solution, and 1 μl of polymerase. The reaction conditions were as follows: 94° C. for 2 minutes; followed by 30 cycles of 94° C. for 30 seconds, 50° C. for 30 seconds, 68° C. for 1.5 minutes, followed by an extension at 68° C. for 7 minutes. The resulting LpxA product was separated from other DNA on a 0.8% agarose gel and isolated from the gel. The LpxA open reading frame was cloned into a topoisomerase I-activated vector and transformed into E. coli. […] The newly synthesized plasmid containing the BamHI- and XhoI-flanked LpxA open reading frame and plasmid pET23a were digested with BamHI and XhoI at 37° C. for 2 hours, DNA was separated by agarose gel electrophoresis, isolated from the gel, and ligated. Ligation reactions were transformed into chemically competent E. coli and plasmid DNA was isolated. Restriction mapping was performed to determine which plasmids contained the LpxA open reading frame. To remove the T7 epitope coding sequence from the 5′end of the LpxA open reading frame, the pET23a plasmid containing the LpxA open reading frame was digested with the restriction enzymes BamHI and XhoI and a pET23b plasmid was digested with BglII and XhoI, DNA was separated by agarose gel electrophoresis, isolated from the gel, and ligated. Ligation reactions were transformed into chemically competent E. coli and plasmid DNA was isolated. Restriction mapping was performed to assess plasmids containing the LpxA open reading frame.
A 5 ml culture of E. Coli BL21 cells expressing the LpxA-6×His plasmid was grown overnight at 37° C. in LB medium containing 50 μg/ml ampicillin and 34 μg/ml chloramphenicol, then subcultured into 500 ml of the same medium and grown at 37° C. until A600=0.6. LpxA expression was induced by addition of 0.5 mM IPTG for three hours. The cells were centrifuged at 7 000×g for 10 minutes at 4° C. and lysed using a mild, nonionic detergent. The soluble fraction containing LpxA was added to 1 ml of nickel affinity resin in a 15 ml Falcon tube; the resin was washed extensively with extraction/wash buffer (50 mM Na-phosphate (pH 7.0) and 300 mM NaCl) prior to use. This mixture was incubated on a rotating platform at low speed for 20 minutes at room temperature. The resin was centrifuged at 1000 rpm in a bench top centrifuge for 2 min, washed twice (10 min each) with 10 ml of extraction/wash buffer, resuspended in 10 ml of extraction/wash buffer, and transferred to a 10 ml polypropylene disposable protein purification column. The column was eluted with 5 ml of 50 mM Na-phosphate (pH 7.0) containing 300 mM NaCl and 150 mM imidazole, collected in 1 ml fractions. The eluate was analysed by SDS-PAGE and was visualised using a protein stain (FIG. 7 inset).
Recombinant Vibrio harveyi acyl carrier protein was prepared from a GST fusion protein as described previously (Flaman et al., 2001). […]

T1 sequence (P0A722 whole entry): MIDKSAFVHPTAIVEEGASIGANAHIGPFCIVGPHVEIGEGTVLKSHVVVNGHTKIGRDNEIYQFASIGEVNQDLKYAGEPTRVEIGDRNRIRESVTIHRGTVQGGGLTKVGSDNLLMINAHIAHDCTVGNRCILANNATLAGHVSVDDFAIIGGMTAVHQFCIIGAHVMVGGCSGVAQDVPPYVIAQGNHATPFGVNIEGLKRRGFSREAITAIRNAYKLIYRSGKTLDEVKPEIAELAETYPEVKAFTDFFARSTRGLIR

CCOC(=O)c1ccc(-c2cc(-c3nnn[nH]3)c(-c3ccc(C(=O)OCC)cc3)s2)cc1 [DNM-131J, 5-(2,5-Bis(4-(ethoxylcarbonyl)phenyl)thiophen-3-yl)-1H-tetrazole] and Cn1nnnc1-c1cc(-c2ccc(C(=O)O)cc2)sc1-c1ccc(C(=O)O)cc1 [DNM-133E, 5-(2,5-Bis(4-carboxyphenyl)thiophen-3-yl)-1-methyl-1H-tetrazole] cannot be ordered by inhibition at 5000 µM: over 80% for the first, over 70% for the second.

COC(=O)c1ccccc1-c1cc(-c2nnn[nH]2)c(-c2ccccc2C(=O)OC)s1 [DNM-131K, 5-(2,5-Bis(2-(methoxylcarbonyl)phenyl)thiophen-3-yl)-1H-tetrazole] and c1ccc(Cc2cc(-c3nnn[nH]3)c(Cc3ccccc3)s2)cc1 [DNM-131O, 5-(2,5-Dibenzylthiophen-3-yl)-1H-tetrazole] cannot be ordered by inhibition at 5000 µM: over 70% for the first, over 80% for the second.

Cn1nnc(-c2cc(-c3cccc(O)c3)sc2-c2cccc(O)c2)n1 [DNM-132A, 5-(2,5-Bis(3-hydroxyphenyl)thiophen-3-yl)-2-methyl-2H-tetrazole] and Cn1nnnc1-c1cc(-c2cccc(O)c2)sc1-c1cccc(O)c1 [DNM-133A, 5-(2,5-Bis(3-hydroxyphenyl)thiophen-3-yl)-1-methyl-1H-tetrazole] cannot be ordered by inhibition at 5000 µM: over 80% for the first, over 80% for the second.

Cn1nnc(-c2cc(-c3ccc(O)cc3)sc2-c2ccc(O)cc2)n1 [DNM-132C, 5-(2,5-Bis(4-hydroxyphenyl)thiophen-3-yl)-2-methyl-2H-tetrazole] and Cn1nnnc1-c1cc(-c2ccc(O)cc2)sc1-c1ccc(O)cc1 [DNM-133C, 5-(2,5-Bis(4-hydroxyphenyl)thiophen-3-yl)-1-methyl-1H-tetrazole] cannot be ordered by inhibition at 5000 µM: over 80% for the first, over 80% for the second.

In the case of Cn1nnc(-c2cc(-c3cccc(C(=O)O)c3)sc2-c2cccc(C(=O)O)c2)n1 [DNM-132G, 5-(2,5-Bis(3-carboxyphenyl)thiophen-3-yl)-2-methyl-2H-tetrazole], the inhibition at 5000 µM is reported as over 80%.
